Results published in patent publication US20230091888A1, “HERBICIDE COMBINATIONS COMPRISING GLUFOSINATE AND SELECTED PPO INHIBITORS” (BASF SE, priority 2020, published 2023).

Legend:
Test in all cases: Greenhouse post-emergence weed control, percent injury vs untreated control
Format in all cases: in vivo
Conditions in all cases: 19 DAT
Hordeum vulgare (HORVS) = test system: Hordeum vulgare (HORVS)
Galium aparine (GALAP) = test system: Galium aparine (GALAP)
[1] = test system: Amaranthus tuberculatus (AMATU)
[2] = test system: Ambrosia artemisiifolia (AMBEL)
[3] = test system: Amaranthus Palmeri (AMAPA)
[4] = test system: Echinochloa crus-galli (ECHCG)

## CP(=O)(O)CCC(N)C(=O)O (racemic) [Glufosinate, (2RS)-2-amino-4-[hydroxy(methyl)phosphinoyl]butyric acid]
Hordeum vulgare (HORVS); Hordeum vulgare, 456 h, 100 g ai/ha, read-out: Solo Glufosinate (100 g ai/ha) % activity
  inhibition at 100 g/ha: 0%
Hordeum vulgare (HORVS); Hordeum vulgare, 456 h, 200 g ai/ha, read-out: Solo Glufosinate (200 g ai/ha) % activity
  inhibition at 200 g/ha: 30%
Galium aparine (GALAP); Galium aparine, 456 h, 50 g ai/ha, read-out: Solo Glufosinate (50 g ai/ha) % activity
  inhibition at 50 g/ha: 30%
[1]; Amaranthus tuberculatus, 456 h, 50 g ai/ha, read-out: Solo Glufosinate (50 g ai/ha) % activity
  inhibition at 50 g/ha: 40%
[1]; Amaranthus tuberculatus, 456 h, 100 g ai/ha, read-out: Solo Glufosinate (100 g ai/ha) % activity
  inhibition at 100 g/ha: 70%
[1]; Amaranthus tuberculatus, 456 h, 200 g ai/ha, read-out: Solo Glufosinate (200 g ai/ha) % activity
  inhibition at 200 g/ha: 90%
[2]; Ambrosia artemisiifolia, 456 h, 50 g ai/ha, read-out: Solo Glufosinate (50 g ai/ha) % activity
  inhibition at 50 g/ha: 40%
[3]; Amaranthus palmeri, 456 h, 50 g ai/ha, read-out: Solo Glufosinate (50 g ai/ha) % activity
  inhibition at 50 g/ha: 35%
[3]; Amaranthus palmeri, 456 h, 100 g ai/ha, read-out: Solo Glufosinate (100 g ai/ha) % activity
  inhibition at 100 g/ha: 30%
[3]; Amaranthus palmeri, 456 h, 200 g ai/ha, read-out: Solo Glufosinate (200 g ai/ha) % activity
  inhibition at 200 g/ha: 80%
[4]; Echinochloa crus-galli, 456 h, 50 g ai/ha, read-out: Solo Glufosinate (50 g ai/ha) % activity
  inhibition at 50 g/ha: 10%
[4]; Echinochloa crus-galli, 456 h, 100 g ai/ha, read-out: Solo Glufosinate (100 g ai/ha) % activity
  inhibition at 100 g/ha: 25%
[4]; Echinochloa crus-galli, 456 h, 200 g ai/ha, read-out: Solo Glufosinate (200 g ai/ha) % activity
  inhibition at 200 g/ha: 70%

## C#CCN(C)c1c(C#N)cnn1-c1nn2c(c1Cl)CCCC2 [Pyraclonil]
Hordeum vulgare (HORVS); 3.125 g ai/ha
  Solo pyraclonil (3.125 g ai/ha) % activity: 0%
[1]; 1.5625 g ai/ha
  Solo pyraclonil (1.5625 g ai/ha) % activity: 20%
[1]; 6.25 g ai/ha
  Solo Pyraclonil (6.25 g ai/ha) % activity: 35%
[2]; 1.5625 g ai/ha
  Solo pyraclonil (1.5625 g ai/ha) % activity: 25%
[2]; 6.25 g ai/ha
  Solo Pyraclonil (6.25 g ai/ha) % activity: 65%
[3]; 3.125 g ai/ha
  Solo pyraclonil (3.125 g ai/ha) % activity: 30%
[3]; 6.25 g ai/ha
  Solo Pyraclonil (6.25 g ai/ha) % activity: 20%

## N#Cc1cnn(-c2nn3c(c2Cl)CCCC3)c1NCC1CC1 [cyclopyranyl, cyclopyranil]
Hordeum vulgare (HORVS); 6.25 g ai/ha
  Solo cyclopyranyl (6.25 g ai/ha) % activity: 15%
Galium aparine (GALAP); 6.25 g ai/ha
  Solo cyclopyranyl (6.25 g ai/ha) % activity: 65%
[1]; 6.25 g ai/ha
  Solo cyclopyranyl (6.25 g ai/ha) % activity: 65%
[3]; 1.5625 g ai/ha
  Solo cyclopyranyl (1.5625 g ai/ha) % activity: 10%
[3]; 3.125 g ai/ha
  Solo cyclopyranyl (3.125 g ai/ha) % activity: 10%
[3]; 6.25 g ai/ha
  Solo cyclopyranyl (6.25 g ai/ha) % activity: 25%
[4]; 6.25 g ai/ha
  Solo cyclopyranyl (6.25 g ai/ha) % activity: 25%

## Oxadiargyl
[1]; 6.25 g ai/ha
  Solo Oxadiargyl (6.25 g ai/ha) % activity: 40%
[2]; 3.125 g ai/ha
  Solo Oxadiargyl (3.125 g ai/ha) % activity: 20%
[2]; 6.25 g ai/ha
  Solo Oxadiargyl (6.25 g ai/ha) % activity: 10%
[3]; 3.125 g ai/ha
  Solo Oxadiargyl (3.125 g ai/ha) % activity: 40%
[3]; 6.25 g ai/ha
  Solo Oxadiargyl (6.25 g ai/ha) % activity: 30%
[4]; 3.125 g ai/ha
  Solo Oxadiargyl (3.125 g ai/ha) % activity: 15%
